Here are results for 17 molecules from ChEMBL document CHEMBL1151043, “The synthesis and antibacterial activity of 2-para-quarternary ammoniomethylphenyl-carbapenems” (1993).

SMILES strings stand for the structures. In brackets after ≈: the same amount, converted by molar mass.

In assay [1] the target is T1, Dipeptidase 1 (Sus scrofa) (UniProt P22412).
T1 sequence (whole entry): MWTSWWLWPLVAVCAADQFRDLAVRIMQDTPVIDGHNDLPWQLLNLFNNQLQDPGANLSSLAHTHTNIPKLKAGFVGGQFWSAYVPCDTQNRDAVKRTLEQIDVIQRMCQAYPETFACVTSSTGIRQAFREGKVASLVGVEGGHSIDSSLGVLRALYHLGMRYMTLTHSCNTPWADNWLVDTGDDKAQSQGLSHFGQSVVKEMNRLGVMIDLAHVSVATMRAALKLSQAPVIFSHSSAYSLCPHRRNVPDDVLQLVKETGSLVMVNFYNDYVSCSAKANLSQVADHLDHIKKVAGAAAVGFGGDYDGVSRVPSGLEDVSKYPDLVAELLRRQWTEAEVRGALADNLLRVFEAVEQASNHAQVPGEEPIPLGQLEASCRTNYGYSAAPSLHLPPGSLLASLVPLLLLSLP
Description: Susceptibility of compound towards porcine Dehydropeptidase-1 relative to imipenem as […] was calculated.

Assay [2] has as its system Enterococcus. Description: In vitro antibacterial activity against Enterococcus relative to thienamycin. Format: functional.
The test system of assay [3] is Escherichia coli. Description: In vitro antibacterial activity against Escherichia coli relative to thienamycin. Format: functional.
In assay [4] the test system is Enterobacter. Description: In vitro antibacterial activity against Enterobacter relative to thienamycin. Format: functional.
The subject of assay [5] is Klebsiella. Description: In vitro antibacterial activity against Klebsiella relative to thienamycin. Format: functional.
The test system of assay [6] is Pseudomonas. Put plainly: In vitro antibacterial activity against Pseudomonas relative to thienamycin. Type of assay: functional.
For assay [7], the system named is Proteus. Put plainly: In vitro antibacterial activity against Proteus relative to thienamycin. Type of assay: functional, Proteus sp.
For assay [8], the system named is Serratia. Description: In vitro antibacterial activity against Serratia relative to thienamycin. Type of assay: functional.
In assay [9] the test system is Staphylococcus aureus. Description: In vitro antibacterial activity against Staphylococcus aureus (4) relative to Thienamycin (1). Type of assay: functional.
Assay [10] concerns Escherichia coli. Put plainly: Minimum inhibitory concentration required for the antibacterial activity against Escherichia coli. Format: functional.
In assay [11] the test system is Enterobacter. Description: Minimum inhibitory concentration required for the antibacterial activity against Enterobacter. Format: functional.
The subject of assay [12] is Klebsiella. Description: Minimum inhibitory concentration required for the antibacterial activity against Klebsiella. Type of assay: functional.
Assay [13] relates to Pseudomonas. Description: Minimum inhibitory concentration required for the antibacterial activity against Pseudomonas relative to Thienamycin (1). Format: functional.
Assay [14] relates to Proteus. Description: Minimum inhibitory concentration required for the antibacterial activity against Proteus. Type of assay: functional, Proteus sp.
Assay [15] relates to Serratia. Put plainly: Minimum inhibitory concentration required for the antibacterial activity against Serratia. Type of assay: functional.
The test system of assay [16] is Staphylococcus aureus. Description: Minimum inhibitory concentration required for the antibacterial activity against Staphylococcus aureus. Type of assay: functional.
In assay [17] the test system is Enterococcus. Put plainly: Minimum inhibitory concentration required for the antibacterial activity against Enterococcus. Type of assay: functional.
Assay [18] deals with Staphylococcus aureus. Description: In vitro antibacterial activity against Staphylococcus aureus relative to thienamycin. Type of assay: functional.

On to `C[C@@H](O)[C@H]1C(=O)N2C(C(=O)O)=C(SCCNC=N)C[C@H]12.O` [IMIPENEM], for which the Susceptibility in assay [1] was 0.85. Further, the Relative potency in the assay on Enterococcus [2] is given as 1.5; in the assay with Escherichia coli [3] it was 1.6; in the assay with Enterobacter [4], 1.8; in the assay with Klebsiella [5], 1.5; with Pseudomonas [6], 4; in the assay on Proteus [7] it was 1.6. Besides, the Relative potency with Serratia [8] and in the assay on Staphylococcus aureus [9] was 1.8 in each case.

With `CSCc1ccc[n+](Cc2ccc(C3=C(C(=O)[O-])N4C(=O)[C@H]([C@@H](C)O)[C@H]4C3)cc2)c1`, in assay [1], the Susceptibility was 0.05. In addition, the Relative potency in the assay on Enterococcus [2] is listed as 19.7; in the assay on Escherichia coli [3] it was 6.1; with Enterobacter [4] it was 10.6; with Klebsiella [5], 3.7; in the assay on Pseudomonas [6] it was 0.08; with Proteus [7] it was 6.5. Besides, the Relative potency worked out at 29.9 in the assay on Serratia [8] and 1.9 in the assay with Staphylococcus aureus [9].

Consider `C[C@@H](O)[C@H]1C(=O)N2C(C(=O)[O-])=C(c3ccc(C[n+]4cccc(C(=O)N(C)C)c4)cc3)C[C@H]12`, for which, in [1], the Susceptibility was 0.05. The Relative potency is on record as 5.7 in the assay with Enterococcus [2]; 2.3 in the assay with Escherichia coli [3]; 3.5 in the assay with Enterobacter [4]; 1.1 in the assay with Klebsiella [5]; 0.04 in the assay with Pseudomonas [6]; 4.6 in the assay with Proteus [7]. The figures for the Relative potency with Serratia [8] and in the assay on Staphylococcus aureus [9] were 4 and 0.3, respectively.

Regarding `CO[C@@]1(NC(=O)Cc2cccs2)C(=O)N2C(C(=O)O)=C(COC(N)=O)CS[C@@H]21` [CEFOXITIN], the Relative potency is given as 0.06 in the assay with Enterococcus [2]; 0.1 in the assay with Escherichia coli [3]; 0.03 in the assay on Enterobacter [4]; 0.04 in the assay with Klebsiella [5]; 0.6 in the assay with Proteus [7]; 0.3 in the assay on Serratia [8]. The same molecule gave a Relative potency with Staphylococcus aureus [9] of 0.03.

Regarding `CSc1ccc[n+](Cc2ccc(C3=C(C(=O)[O-])N4C(=O)[C@H]([C@@H](C)O)[C@H]4C3)cc2)c1`, the Susceptibility in [1] is 0.06. In addition, the Relative potency in the assay with Enterococcus [2] turned out to be 10.6; in the assay with Escherichia coli [3] it was 4.3; in the assay on Enterobacter [4], 11.3; in the assay with Klebsiella [5], 3.7; in the assay with Pseudomonas [6], 0.08; in the assay on Proteus [7], 9.2. Further, the Relative potency in the assay with Serratia [8] turned out to be 19.7; in the assay with Staphylococcus aureus [9] it was 2.6.

Take `C[C@@H](O)[C@H]1C(=O)N2C(C(=O)O)=C(SCCN)C[C@H]12` [THIENAMYCIN]: in assay [1], the Susceptibility is 1. The MIC against Escherichia coli [10] is 0.37 µg/mL (≈ 1.36 µM); in the assay on Enterobacter [11], 0.67 µg/mL (≈ 2.46 µM); against Klebsiella [12], 0.88 µg/mL (≈ 3.23 µM); in the assay with Pseudomonas [13], 1.79 µg/mL (≈ 6.57 µM); against Proteus [14], 1.9 µg/mL (≈ 6.98 µM); in the assay on Serratia [15], 0.93 µg/mL (≈ 3.42 µM). Also, the figures for the MIC in the assay on Staphylococcus aureus [16] and against Enterococcus [17] were 0.03 µg/mL (≈ 0.11 µM) and 3.6 µg/mL (≈ 13.2 µM), respectively.

Turning to `Cc1cc[n+](Cc2ccc(C3=C(C(=O)[O-])N4C(=O)[C@H]([C@@H](C)O)[C@H]4C3)cc2)cc1`, the Susceptibility in assay [1] was 0.06. For the same molecule, the Relative potency turned out to be 14.9 with Enterococcus [2]; 4.6 in the assay on Escherichia coli [3]; 9.2 in the assay on Enterobacter [4]; 2.8 in the assay on Klebsiella [5]; 0.1 with Pseudomonas [6]; 12.1 in the assay on Proteus [7]. The values for the Relative potency in the assay on Serratia [8] and in the assay with Staphylococcus aureus [9] were 22.6 and 1.1, respectively.

Consider `C[C@@H](O)[C@H]1C(=O)N2C(C(=O)[O-])=C(c3ccc(C[n+]4cccc(C(=O)[O-])c4)cc3)C[C@H]12.[K+]`, for which the Relative potency is 5.3 in the assay with Enterococcus [2]; 6.1 in the assay with Escherichia coli [3]; 12.1 in the assay on Enterobacter [4]; 2 with Klebsiella [5]; 0.08 with Pseudomonas [6]; 27.9 in the assay on Proteus [7]. The Relative potency is on record as 27.9 in the assay with Serratia [8] and 0.6 in the assay with Staphylococcus aureus [9].

Take `C[C@@H](O)[C@H]1C(=O)N2C(C(=O)[O-])=C(c3ccc(C[n+]4ccc(CS(=O)(=O)[O-])cc4)cc3)C[C@H]12.[K+]`: the Susceptibility in assay [1] was 0.06. Also, the Relative potency in the assay with Enterococcus [2] is on record as 3.5; in the assay on Escherichia coli [3], 6.5; in the assay with Enterobacter [4], 9.2; in the assay with Klebsiella [5], 1.6; in the assay with Pseudomonas [6] it was 0.04; with Proteus [7], 9.8. For the same molecule, the Relative potency is on record as 9.8 with Serratia [8] and 0.5 in the assay on Staphylococcus aureus [9].

For `C[C@@H](O)[C@H]1C(=O)N2C(C(=O)[O-])=C(c3ccc(C[n+]4ccc(CN)cc4)cc3)C[C@H]12`, the Susceptibility in [1] is 0.04. In addition, the Relative potency in the assay on Enterococcus [2] amounted to 7; in the assay on Escherichia coli [3], 1.7; with Enterobacter [4] it was 2.6; in the assay with Klebsiella [5], 0.8; in the assay with Pseudomonas [6], 0.05; with Proteus [7], 4.3. In addition, the Relative potency is given as 6.1 with Serratia [8] and 0.5 with Staphylococcus aureus [9].

For `C[C@@H](O)[C@H]1C(=O)N2C(C(=O)[O-])=C(c3ccc(C[n+]4cccc5ccccc54)cc3)C[C@H]12`, the Susceptibility in assay [1] was 0.07. The Relative potency came to 24.3 in the assay on Enterococcus [2]; 6.1 in the assay on Escherichia coli [3]; 8.6 in the assay on Enterobacter [4]; 1.2 in the assay on Klebsiella [5]; 0.07 with Pseudomonas [6]; 13 with Proteus [7]. Besides, the Relative potency in the assay on Serratia [8] is 27.9; with Staphylococcus aureus [18], 1.5.

On to `C[C@@H](O)[C@H]1C(=O)N2C(C(=O)[O-])=C(c3ccc(C[n+]4cccc(CSCCC#N)c4)cc3)C[C@H]12`, for which the Susceptibility in assay [1] was 0.05. The Relative potency in the assay on Enterococcus [2] was found to be 8; in the assay with Escherichia coli [3] it was 8; in the assay with Enterobacter [4], 8.6; with Klebsiella [5], 4.6; with Pseudomonas [6] it was 0.08; in the assay with Proteus [7], 7. For the same molecule, the Relative potency with Serratia [8] came out at 14.9; with Staphylococcus aureus [9], 1.

Consider `C[C@@H](O)[C@H]1C(=O)N2C(C(=O)[O-])=C(c3ccc(C[n+]4ccc(N5CCSCC5)cc4)cc3)C[C@H]12`, for which the Susceptibility in assay [1] was 0.09. For the same molecule, the Relative potency with Enterococcus [2] is reported as 4.9; in the assay with Escherichia coli [3], 5.3; with Enterobacter [4], 4.6; in the assay on Klebsiella [5] it was 1.1; in the assay with Pseudomonas [6], 0.04; in the assay with Proteus [7], 7. The values for the Relative potency in the assay with Serratia [8] and in the assay with Staphylococcus aureus [18] were 4.9 and 1.2, respectively.

Turning to `C[C@@H](O)[C@H]1C(=O)N2C(C(=O)[O-])=C(c3ccc(C[n+]4cc(N)cc5ccccc54)cc3)C[C@H]12`, the Susceptibility in assay [1] is 0.09. Further, the Relative potency is given as 12.1 in the assay with Enterococcus [2]; 3.7 in the assay with Escherichia coli [3]; 3.7 in the assay with Enterobacter [4]; 0.9 with Klebsiella [5]; 0.05 in the assay with Pseudomonas [6]; 9.2 in the assay with Proteus [7]. The Relative potency amounted to 9.2 in the assay with Serratia [8] and 1.9 in the assay on Staphylococcus aureus [18].

In the case of `C[C@@H](O)[C@H]1C(=O)N2C(C(=O)[O-])=C(c3ccc(C[n+]4ccc(N)cc4)cc3)C[C@H]12`, in [1], the Susceptibility was 0.14. The Relative potency in the assay on Enterococcus [2] was 24.3; in the assay with Escherichia coli [3], 7; with Enterobacter [4], 11.3; in the assay with Klebsiella [5], 2.3; in the assay with Pseudomonas [6] it was 0.2; in the assay with Proteus [7], 16. Also, the figures for the Relative potency with Serratia [8] and in the assay on Staphylococcus aureus [18] were 29.9 and 1.1, respectively.

For the molecule `C[C@@H](O)[C@H]1C(=O)N2C(C(=O)[O-])=C(c3ccc(C[n+]4ccc(CCS(=O)(=O)[O-])cc4)cc3)C[C@H]12.[K+]`, the Susceptibility in [1] is 0.06. Besides, the Relative potency with Enterococcus [2] is reported as 4.3; in the assay with Escherichia coli [3] it was 5.7; in the assay with Enterobacter [4], 7; in the assay with Klebsiella [5], 1.1; in the assay with Pseudomonas [6], 0.04; in the assay with Proteus [7], 17.1. Further, the Relative potency in the assay with Serratia [8] was determined as 10.6; with Staphylococcus aureus [9], 0.4.

For `C[C@@H](O)[C@H]1C(=O)N2C(C(=O)O)=C(c3ccc(CN4CCCCC4)cc3)C[C@H]12`, the Susceptibility in [1] is 0.03. Besides, the Relative potency in the assay on Enterococcus [2] is reported as 6.1; with Escherichia coli [3], 2.5; in the assay on Enterobacter [4] it was 4; with Klebsiella [5], 1.4; with Pseudomonas [6], 0.05; with Proteus [7], 8.6. The results for the Relative potency in the assay on Serratia [8] and with Staphylococcus aureus [18] were 5.7 and 0.6, respectively.

A word on the MIC: it is the lowest concentration found to suppress growth.
